Test results reported in US5721247A, “Isothiourea derivatives useful in therapy” (priority 1994, dated 1998).

Tests used:
[1] = biological target: T1, macrophage nitric oxide synthase (Mus musculus, UniProt P29477); experiment: Screen for macrophage nitric oxide synthase inhibiting activity (Screen B); type: biochemical, murine; conditions: ratio of IC50 in Screen B (macrophage isoform) to IC50 in Screen A (neuronal isoform)
T1 construct: Nitric oxide synthase is produced by cells in response to interferon-γ (IFNγ) and lipopolysaccharide (LPS); endogenous in cells; host or cells: J774A-1 murine macrophage cell line, induced with LPS and IFN-gamma (cell lysate)
From the text: The enzyme nitric oxide synthase has a number of isoforms and compounds of formula I, and pharmaceutically acceptable salts thereof, may be screened for nitric oxide synthase inhibiting activity by procedures based on those of Bredt and Snyder in Proc. Natl. Acad. Sci. (1990) 87, 682-685 and Forstermann et. al., Eur. J. Pharm. (1992) 225, 161-165 as follows. Nitric oxide synthase converts ^3 H-L-arginine to ^3 H-L-citrulline which can be separated by cation exchange chromatography and quantified by scintillation counting.
(B) Screen for macrophage nitric oxide synthase inhibiting activity
Enzyme is prepared, after induction, from the cultured murine macrophage cell line J774A-1 (obtained from laboratories of the Imperial Cancer Research Fund). J774A-1 cells are cultured in Dulbecco's Modified Eagles Medium (DMEM) supplemented with 10% foetal bovine serum, 4 mM L-glutamine and antibiotics (100 units/ml penicillin G, 100 μg/ml streptomycin & 0.25 μg/ml amphotericin B). Cells are routinely grown in […] flasks containing 35 ml medium kept at 37° C. and in a humidified atmosphere containing 5% CO2.
Nitric oxide synthase is produced by cells in response to interferon-γ (IFNγ) and lipopolysaccharide (LPS). […]
Labelled L-citrulline is separated from labelled L-arginine using Dowex AG-50W. […] After allowing the samples to dry the L-citrulline is quantified by scintillation counting. […]

[2] = biological target: T2, endothelial nitric oxide synthase (Homo sapiens, UniProt P29474); experiment: Screen for endothelial nitric oxide synthase inhibiting activity (Screen C); type: biochemical
T2 construct: Enzyme may be isolated from human umbilical vein endothelial cells (HUVECs); host or cells: HUVEC (CHAPS-solubilised particulate fraction)

[3] = biological target: T3, neuronal nitric oxide synthase (Rattus norvegicus, UniProt P29476); experiment: Screen for neuronal nitric oxide synthase inhibiting activity (Screen A); type: biochemical
T3 construct: Enzyme was isolated from rat hippocampus or cerebellum; from tissue; host or cells: cerebellum or hippocampus of male Sprague-Dawley rat (20,000 g supernatant)
T3 sequence (P29476 whole entry): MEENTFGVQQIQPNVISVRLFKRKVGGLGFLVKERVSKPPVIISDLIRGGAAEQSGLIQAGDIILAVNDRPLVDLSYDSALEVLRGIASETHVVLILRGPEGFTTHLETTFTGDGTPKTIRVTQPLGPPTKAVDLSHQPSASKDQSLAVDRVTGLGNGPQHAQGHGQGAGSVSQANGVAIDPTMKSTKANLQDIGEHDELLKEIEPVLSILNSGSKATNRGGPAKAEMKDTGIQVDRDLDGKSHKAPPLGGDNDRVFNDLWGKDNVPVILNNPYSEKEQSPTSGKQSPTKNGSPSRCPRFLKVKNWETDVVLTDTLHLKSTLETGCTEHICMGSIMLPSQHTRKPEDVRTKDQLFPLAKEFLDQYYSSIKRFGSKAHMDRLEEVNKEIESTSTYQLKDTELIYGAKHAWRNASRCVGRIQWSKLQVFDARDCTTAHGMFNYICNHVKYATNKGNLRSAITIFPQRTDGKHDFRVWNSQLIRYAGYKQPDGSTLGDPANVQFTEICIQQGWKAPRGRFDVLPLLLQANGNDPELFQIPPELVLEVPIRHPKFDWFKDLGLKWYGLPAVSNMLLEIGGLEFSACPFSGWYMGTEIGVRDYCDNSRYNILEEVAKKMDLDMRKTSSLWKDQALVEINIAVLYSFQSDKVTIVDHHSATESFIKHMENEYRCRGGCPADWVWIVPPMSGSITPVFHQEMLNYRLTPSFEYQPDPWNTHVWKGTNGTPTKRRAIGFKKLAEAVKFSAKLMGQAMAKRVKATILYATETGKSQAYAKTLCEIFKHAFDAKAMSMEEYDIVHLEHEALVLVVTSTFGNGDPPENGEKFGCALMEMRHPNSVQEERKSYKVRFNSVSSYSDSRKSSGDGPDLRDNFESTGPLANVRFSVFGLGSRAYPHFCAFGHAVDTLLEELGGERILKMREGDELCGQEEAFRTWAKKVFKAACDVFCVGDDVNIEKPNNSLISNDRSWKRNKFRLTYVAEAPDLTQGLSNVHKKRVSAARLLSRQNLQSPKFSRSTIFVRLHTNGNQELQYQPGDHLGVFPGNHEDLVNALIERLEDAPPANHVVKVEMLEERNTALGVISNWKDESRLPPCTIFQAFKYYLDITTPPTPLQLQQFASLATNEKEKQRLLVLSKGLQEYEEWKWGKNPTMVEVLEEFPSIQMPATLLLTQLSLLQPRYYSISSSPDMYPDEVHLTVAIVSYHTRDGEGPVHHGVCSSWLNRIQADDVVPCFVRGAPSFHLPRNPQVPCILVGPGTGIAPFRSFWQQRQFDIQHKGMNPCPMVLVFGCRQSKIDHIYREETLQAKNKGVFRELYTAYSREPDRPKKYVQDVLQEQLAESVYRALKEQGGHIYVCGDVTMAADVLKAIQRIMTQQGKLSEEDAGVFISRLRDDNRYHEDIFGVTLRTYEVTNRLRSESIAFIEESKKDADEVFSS

T2 sequence (P29474 2-1203): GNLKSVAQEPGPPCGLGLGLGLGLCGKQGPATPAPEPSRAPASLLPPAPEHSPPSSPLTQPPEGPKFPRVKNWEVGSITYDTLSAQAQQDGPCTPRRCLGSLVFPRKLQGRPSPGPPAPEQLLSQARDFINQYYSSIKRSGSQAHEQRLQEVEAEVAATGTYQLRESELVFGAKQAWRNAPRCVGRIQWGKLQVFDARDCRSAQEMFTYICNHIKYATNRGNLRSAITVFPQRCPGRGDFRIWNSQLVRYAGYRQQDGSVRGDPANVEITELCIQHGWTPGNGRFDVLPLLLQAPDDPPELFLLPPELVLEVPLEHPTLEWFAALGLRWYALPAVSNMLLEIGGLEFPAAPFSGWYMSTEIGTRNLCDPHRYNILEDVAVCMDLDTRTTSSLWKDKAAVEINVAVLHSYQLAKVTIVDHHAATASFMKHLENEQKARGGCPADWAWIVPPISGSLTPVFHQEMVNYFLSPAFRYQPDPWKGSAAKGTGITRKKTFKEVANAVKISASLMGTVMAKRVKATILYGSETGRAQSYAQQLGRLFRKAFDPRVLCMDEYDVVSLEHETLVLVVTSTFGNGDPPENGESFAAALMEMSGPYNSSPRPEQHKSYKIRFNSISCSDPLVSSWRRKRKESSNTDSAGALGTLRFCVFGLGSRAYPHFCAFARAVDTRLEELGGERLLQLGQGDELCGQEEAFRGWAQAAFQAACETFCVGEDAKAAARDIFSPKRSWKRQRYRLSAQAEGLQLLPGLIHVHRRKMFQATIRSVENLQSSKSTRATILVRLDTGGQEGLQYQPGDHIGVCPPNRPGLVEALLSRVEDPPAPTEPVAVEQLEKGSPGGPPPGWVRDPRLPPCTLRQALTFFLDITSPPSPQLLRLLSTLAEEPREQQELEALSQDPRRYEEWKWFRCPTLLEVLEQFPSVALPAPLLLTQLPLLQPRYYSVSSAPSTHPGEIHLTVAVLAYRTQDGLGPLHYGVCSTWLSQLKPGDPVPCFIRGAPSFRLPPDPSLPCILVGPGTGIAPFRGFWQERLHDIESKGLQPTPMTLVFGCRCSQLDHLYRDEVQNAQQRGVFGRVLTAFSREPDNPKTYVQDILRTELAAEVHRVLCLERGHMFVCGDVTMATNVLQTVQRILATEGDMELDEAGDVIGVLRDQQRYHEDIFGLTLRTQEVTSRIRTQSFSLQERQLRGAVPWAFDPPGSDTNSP

IC50 values more than 10 times that obtained in Screen A [1] | IC50 values more than 10 times that obtained in Screen A ([2]; ratio of IC50 in Screen C (endothelial isoform) to IC50 in Screen A (neuronal isoform)) | IC50 ([3]; Screen A, neuronal isoform, rat hippocampus or cerebellum supernatant) [µM] | inhibition at 1 µM ([2]; reference standard at a concentration of 1 μM, HUVEC enzyme) [%] | inhibition at 1 µM ([3]; reference standard at a concentration of 1 μM) [%] | SMILES
more than 10 times | more than 10 times | < 10 |  |  | CCSC(=N)Nc1ccc(CCN(C)Cc2ccccc2)cc1 [Example 1, N-(4-(2-((Phenylmethyl)(methyl)amino)ethyl)phenyl)carbamimidothioic acid ethyl ester]
 |  |  | 70 to 90 | 60 | N=C(NCCC[C@H](N)C(=O)O)N[N+](=O)[O-] [N-nitro-L-arginine, reference compound]
